From patent US20170150719A1, “FUNGICIDAL PYRAZOLES AND THEIR MIXTURES” (E I DU PONT DE NEMOURS AND COMPANY, priority 2010, published 2017)

Columns and labels:
Septoria tritici [1] = test: Test F: wheat leaf blotch, preventive spray on wheat seedlings, visual disease rating; assay type: in vivo; conditions: 100 = 100% disease control, 0 = no disease control relative to the controls
Source text: (§1) A hyphen (-) indicates no test results.

[2] = system: Puccinia recondita f. sp. tritici; test: Test G: wheat leaf rust, spray after inoculation (curative) on wheat seedlings, visual disease rating; assay type: in vivo; conditions: 100 = 100% disease control
Source text: as §1

[3] = system: Blumeria graminis f. sp. tritici; test: Test I: wheat powdery mildew, preventive spray on wheat seedlings, visual disease rating; conditions: 100 = 100% disease control, 0 = no disease control relative to the controls
Botrytis cinerea = test: Test A: tomato Botrytis, preventive spray on tomato seedlings, visual disease rating; conditions: 100 = 100% disease control, 0 = no disease control relative to the controls
Method: (§2) General protocol for preparing test suspensions for Tests A-I: the test compounds were first dissolved in acetone in an amount equal to 3% of the final volume and then suspended at the desired concentration (in ppm) in acetone and purified water (50/50 mix by volume) containing 250 ppm of the surfactant Trem® 014 (polyhydric alcohol esters). The resulting test suspensions were then used in Tests A-I. Each test was conducted in triplicate, and the results were averaged. Spraying a 200 ppm test suspension to the point of run-off on the test plants was the equivalent of a rate of about 800 g/ha. Unless otherwise indicated, the rating values indicate a 200 ppm test suspension was used. (An asterisk “*” next to the rating value indicates a 40 ppm test suspension was used.)
The test suspension was sprayed to the point of run-off on tomato seedlings. The following day the seedlings were inoculated with a spore suspension of Botrytis cinerea (the causal agent of tomato Botrytis) and incubated in saturated atmosphere at 20° C. for 48 h, and then moved to a growth chamber at 24° C. for 3 additional days, after which time visual disease ratings were made.

Alternaria solani = test: Test B: tomato early blight, preventive spray on tomato seedlings, visual disease rating
Septoria nodorum = test: Test E: Septoria glume blotch, preventive spray on wheat seedlings, visual disease rating; conditions: 100 = 100% disease control
[4] = system: Puccinia recondita f. sp. tritici; test: Test H: wheat leaf rust, preventive spray on wheat seedlings, visual disease rating; conditions: 100 = 100% disease control, 0 = no disease control
[5] = Single oral dose pharmacokinetics in rats, plasma and fat by LC/MS (fat:plasma distribution); assay type: in vivo; conditions: single oral dose via gavage, compared to corresponding compounds wherein R^2 is other than H
Method: The pharmacokinetic properties of compounds of Formula 1 can be measured using a wide variety of assay protocols known in the science of pharmacology. In one illustrative method involving a single oral dose, three male and three female rats receive a single dose of a test substance via oral gavage. Approximately 0.25 mL of blood is collected via tail vein immediately prior to dosing, and then at 0.25, 0.5, 1, 2, 4, 8, 12, 24 h and every 24 h thereafter until sacrifice. At sacrifice, fat is also collected to determine the fat:plasma ratio at sacrifice. Blood is collected into tubes that contain ethylenediaminetetracetic acid (EDTA) and centrifuged at 2500×g in order to separate plasma from blood cells. The plasma is then extracted by protein precipitation using, for example, acetonitrile and a protein precipitation plate (e.g., Strata Impact Protein Precipitation Plate, part number CEO-7565 of Phenomenex, Torrance, Calif., U.S.A.) following directions provided for the plate. Alternatively, the plasma is extracted just with acetonitrile, vortexed (i.e. mixed using a vortex mixer), and centrifuged to pellet the proteins. After removal of the proteins, the plasma is analyzed for parent compound and/or metabolites by liquid chromatography-mass spectrometry (LC/MS). The fat is homogenized and extracted by an organic solvent such as acetonitrile. The extract is then analyzed for parent compound and/or metabolites by LC/MS. The plasma pharmacokinetic data is then analyzed using nonlinear modeling software (e.g., WinNonlin™ from Pharsight, Cary, N.C., U.S.A.) to determine half-life of the administered compound in plasma, the time after administration when the maximum plasma concentration is reached (Tmax), the maximum plasma concentration (Cmax) and the area under the plasma concentration curve (AUC). As analysis of fat requires rat sacrifice, fat data is obtained at single time points (i.e. the time of rat sacrifice). However, by using multiple rats sacrificed after different intervals from time of dosing, such parameters as Cmax for fat are determined.

Septoria tritici [6] = test: Tests N1 and N2: growth inhibition of Septoria tritici on solid medium in 96-well plates, absorbance at 600 nm, observed and Colby expected; assay type: cell-based; conditions: Zymoseptoria tritici
Source text: Tests N1 and N2 involved evaluation of mixtures of Compound 81 with 2-[(3-bromo-8-methyl-6-quinolinyl)oxy]-N-(1,1-dimethyl-2-propyn-1-yl)-2-(methylthio)acetamide (Compound A1) and 2-[(3-bromo-6-quinolinyl)oxy]-N-(1,1-dimethylethyl)butanamide (Compound A2), respectively, for inhibiting the growth of Septoria tritici (the causal agent of wheat leaf blotch). The general protocol for preparing test compositions was as follows. Compound 81 (Tests N1 and N2), Compound A1 (Test N1) and Compound A2 (Test N2) were obtained as unformulated, technical-grade materials. Unformulated test compounds were first dissolved in DMSO at the appropriate concentration to provide the desired concentration (in μM) after mixing with the fungal growth medium in the wells of 96-well plates containing 200 μL fungal growth medium per well. The ranges of compound concentrations were chosen to span a range of inhibitory activity from 0 to near 100% to identify any synergistic action when Septoria tritici was treated with compounds added in combination. The DMSO solutions of the test compounds were added to the wells prior to addition of the fungal growth medium.
The fungal growth solid medium was prepared by forming an aqueous mixture containing dipotassium hydrogen phosphate (3.0 g/L), potassium dihydrogen phosphate (4.0 g/L), sodium chloride (0.5 g/L), ammonium chloride (1.0 g/L), magnesium sulfate heptahydrate ([…]) and calcium chloride dihydrate (0.01 g/L), also containing 1 mL/L of a trace element solution (manganese sulfate hydrate (0.1 mg/mL), zinc sulfate heptahydrate (0.2 mg/mL), copper(II) sulfate pentahydrate (0.2 mg/mL), iron(II) sulfate heptahydrate (0.2 mg/mL), sodium molybdate dihydrate (0.1 mg/mL), cobalt(II) sulfate heptahydrate (0.06 mg/mL), boric acid (0.08 mg/mL)), and supplemented with 50 μL/L of a biotin stock solution (0.1 mg/mL). The pH was adjusted to 6.8 with aqueous 1 M sodium carbonate solution. The mixture was further supplemented with 1 g/L of yeast extract, and GELRITE gellan gum (Kelco) (4 g/L) was added. Sufficient water was added to bring the volume to 90% of final volume (e.g., 900 mL volume for preparation of 1 L of fungal growth medium). The mixture was autoclaved. On cooling to 60° C., 100 mL/L of aqueous dextrose solution (10 g/L), 500 μL/L of aqueous ampicillin solution (100 mg/mL) and 500 μL/L of rifampicin solution (10 mg/mL in DMSO) were added to provide the final volume of fungal growth medium, which was then dispensed while still warm using a microliter pipette to the wells of the 96-well plates. The dispensed fungal growth medium in each well was agitated using the tip of the dispensing pipette to mix it with the DMSO solution containing the test compounds.
After the fungal growth medium in the wells had cooled to room temperature and solidified, the top surface of the growth medium in each well was inoculated with 20 μL of a suspension of fungus containing 8×10^4 cells. Following a 2 h period of drying in a sterile hood, plates were placed in a dark incubator at 25° C. for 5 d.
Fungal growth was assessed on a plate reader set to measure absorbance of 600 nm light. The percent growth inhibition observed (Obsd.) in Tests N1 and N2, as well as the percent growth inhibition expected (Exp.) from calculation using the Colby equation, are listed in Tables L and M, respectively.

Phytophthora infestans = test: whole plant or invertebrate; assay type: in vivo; conditions: tomato late blight, 100 = 100% disease control
Rhizoctonia solani = test: Test D: turf brown patch, preventive spray on creeping bent grass seedlings, disease rating; conditions: 100 = 100% disease control, 0 = no disease control relative to the controls
Method: as §2
The test suspension was sprayed to the point of run-off on creeping bent grass (Agrostis sp.) seedlings. The following day the seedlings were inoculated with a bran and mycelial slurry of Rhizoctonia solani (the causal agent of turf brown patch) and incubated in a saturated atmosphere at 27° C. for 48 h, and then moved to a growth chamber at 27° C. for 3 days, after which time disease ratings were made.

Compound: Cc1nn(C)c(Nc2ccc(Cl)cc2F)c1-c1c(F)cc(C#N)cc1F [Compound 40, 4-[5-[(4-chloro-2-fluorophenyl)amino]-1,3-dimethyl-1H-pyrazol-4-yl]-3,5-difluorobenzonitrile]
- pest or weed control at 200 µg/mL (Septoria tritici [1]; Zymoseptoria tritici): 100%
- melting point: 93 to 95 °C
- pest or weed control at 200 µg/mL ([2]; sprayed after inoculation, 0 = no disease control): 63%
- pest or weed control at 200 µg/mL ([3]; Blumeria graminis, in Triticum aestivum, read-out: Test I rating (disease control), wheat powdery mildew): 100%
- pest or weed control at 200 µg/mL (Botrytis cinerea; Botrytis cinerea, in Solanum lycopersicum, read-out: Test A rating (disease control), tomato Botrytis): 99%
- pest or weed control at 200 µg/mL (Alternaria solani; Alternaria solani, in Solanum lycopersicum, read-out: Test B rating (disease control)): 99%
- pest or weed control at 200 µg/mL (Septoria nodorum; Parastagonospora nodorum, in Triticum aestivum, read-out: Test E rating (disease control), Septoria glume blotch, 0 = no disease control relative to the controls): 100%
- pest or weed control at 200 µg/mL ([4]; read-out: Test H rating (disease control), wheat leaf rust, sprayed the day before inoculation): 100%

Compound: Cc1nn(C)c(Nc2c(F)cccc2Br)c1-c1ccc(F)cc1Cl [Compound 241, N-(2-bromo-6-fluorophenyl)-4-(2-chloro-4-fluorophenyl)-1,3-dimethyl-1H-pyrazol-5-amine]
- distribution into fat [5]: significantly diminished distribution into fat

Compound: Cc1nn(C)c(Nc2c(F)cc(F)cc2Cl)c1-c1ccc(C#N)cc1F [Compound 238, 4-[5-[(2-chloro-4,6-difluorophenyl)amino]-1,3-dimethyl-1H-pyrazol-4-yl]-3-fluorobenzonitrile]
- melting point: 177 to 179 °C

Compound: Cc1nn(C)c(Nc2c(F)cccc2Br)c1-c1ccc(F)cc1Br [Compound 244, 4-(2-bromo-4-fluorophenyl)-N-(2-bromo-6-fluorophenyl)-1,3-dimethyl-1H-pyrazol-5-amine]
- melting point: 154 to 156 °C

Compound: CCC(Oc1ccc2ncc(Br)cc2c1)C(=O)NC(C)(C)C (centres unmarked) [Compound A2, 2-[(3-bromo-6-quinolinyl)oxy]-N-(1,1-dimethylethyl)butanamide, reference compound]
- inhibition at 0.032 µM (Septoria tritici [6]; Compound A2 alone 0.032 μM, read-out: % inhibition Obsd. (Test N2)): 0%
- inhibition at 0.16 µM (Septoria tritici [6]; Compound A2 alone 0.16 μM, read-out: % inhibition Obsd. (Test N2)): 6.5%
- inhibition at 0.8 µM (Septoria tritici [6]; Compound A2 alone 0.8 μM, read-out: % inhibition Obsd. (Test N2)): 11.5%
- inhibition at 4 µM (Septoria tritici [6]; Compound A2 alone 4 μM, read-out: % inhibition Obsd. (Test N2)): 95%
- inhibition at 20 µM (Septoria tritici [6]; Compound A2 alone 20 μM, read-out: % inhibition Obsd. (Test N2)): 96%

Compound: Cc1nn(C)c(Nc2ccccc2F)c1-c1ccc(F)cc1Cl [compound 1]
- Test F rating (disease control) (Septoria tritici [1]): 100%
- Test C rating (disease control) (Phytophthora infestans; 0 = no disease control relative to the controls): 0%
- Test I rating (disease control) ([3]; wheat powdery mildew): 100%
- Test A rating (disease control) (Botrytis cinerea; tomato Botrytis): 99%
- Test D rating (disease control) (Rhizoctonia solani): 99%
- Test B rating (disease control) (Alternaria solani; tomato early blight, 100 = 100% disease control, 0 = no disease control relative to the controls): 93%
- Test E rating (disease control) (Septoria nodorum; Septoria glume blotch, 0 = no disease control relative to the controls): 0%
- Test H rating (disease control) ([4]; wheat leaf rust, sprayed the day before inoculation): 99%

Compound: Cc1nn(C)c(Nc2c(F)cccc2Cl)c1-c1ccc(F)cc1Cl [Compound 239, 4-(2-chloro-4-fluorophenyl)-N-(2-chloro-6-fluorophenyl)-1,3-dimethyl-1H-pyrazol-5-amine]
- distribution into fat [5]: significantly diminished distribution into fat
- melting point: 166 to 168 °C
- Test G rating (% disease control) ([2]; spray after inoculation, rating without asterisk): 100%
- Test C rating (% disease control) (Phytophthora infestans; preventive spray, rating without asterisk): 0%
- Test B rating (% disease control) (Alternaria solani; tomato early blight, preventive spray, 100 = 100% disease control, rating without asterisk): 100%
- Test E rating (% disease control) (Septoria nodorum; Septoria glume blotch on wheat, preventive spray, rating without asterisk): 99%

Compound: Cc1nn(C)c(Nc2c(F)cccc2Br)c1-c1ccc(F)cc1F [Compound 245, N-(2-bromo-6-fluorophenyl)-4-(2,4-difluorophenyl)-1,3-dimethyl-1H-pyrazol-5-amine]
- melting point: 149 to 151 °C

Compound: Cc1nn(C)c(Nc2c(F)cccc2Br)c1-c1c(F)cccc1F [Compound 247, N-(2-bromo-6-fluorophenyl)-4-(2,6-difluorophenyl)-1,3-dimethyl-1H-pyrazol-5-amine]
- melting point: 127 to 129 °C

Compound: Cc1nn(C)c(Nc2c(F)cccc2Cl)c1-c1ccc(F)cc1Br [Compound 240, 4-(2-Bromo-4-fluorophenyl)-N-(2-chloro-6-fluorophenyl)-1,3-dimethyl-1H-pyrazol-5-amine]
- distribution into fat [5]: significantly diminished distribution into fat

Compound: C#CC(C)(C)NC(=O)C(Oc1cc(C)c2ncc(Br)cc2c1)SC (centres unmarked) [Compound A1, 2-[(3-bromo-8-methyl-6-quinolinyl)oxy]-N-(1,1-dimethyl-2-propyn-1-yl)-2-(methylthio)acetamide, reference compound]
- inhibition at 0.00032 µM (Septoria tritici [6]; Compound A1 alone 0.00032 μM, read-out: % inhibition Obsd. (Test N1)): 3%
- inhibition at 0.0016 µM (Septoria tritici [6]; Compound A1 alone 0.0016 μM, read-out: % inhibition Obsd. (Test N1)): 5%
- inhibition at 0.008 µM (Septoria tritici [6]; Compound A1 alone 0.008 μM, read-out: % inhibition Obsd. (Test N1)): 14.5%
- inhibition at 0.04 µM (Septoria tritici [6]; Compound A1 alone 0.04 μM, read-out: % inhibition Obsd. (Test N1)): 97%
- inhibition at 0.2 µM (Septoria tritici [6]; Compound A1 alone 0.2 μM, read-out: % inhibition Obsd. (Test N1)): 98%
